Target: T1, glutaminase (GAC) (Homo sapiens, UniProt O94925)
T1 sequence (O94925 55-598 isoform O94925-3 limits assumed): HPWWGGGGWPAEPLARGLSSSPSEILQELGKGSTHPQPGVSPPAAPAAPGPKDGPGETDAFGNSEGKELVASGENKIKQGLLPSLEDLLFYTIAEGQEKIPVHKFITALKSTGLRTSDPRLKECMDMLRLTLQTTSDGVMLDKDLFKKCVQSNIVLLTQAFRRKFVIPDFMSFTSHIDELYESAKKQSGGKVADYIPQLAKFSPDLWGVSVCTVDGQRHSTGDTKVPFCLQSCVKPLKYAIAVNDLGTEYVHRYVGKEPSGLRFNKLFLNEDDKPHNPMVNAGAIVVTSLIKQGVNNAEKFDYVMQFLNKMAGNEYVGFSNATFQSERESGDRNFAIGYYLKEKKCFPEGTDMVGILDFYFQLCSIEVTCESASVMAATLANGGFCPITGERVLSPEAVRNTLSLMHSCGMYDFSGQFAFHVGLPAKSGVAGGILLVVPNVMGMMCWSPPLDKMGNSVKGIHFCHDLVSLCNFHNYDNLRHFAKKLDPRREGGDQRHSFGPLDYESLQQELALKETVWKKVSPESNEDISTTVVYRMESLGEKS
Assay: Glutaminase coupled endpoint enzymatic assay (Example A)
Type: biochemical
Details: inhibition of glutaminase; assay of Example A or Example B
From the text: In certain embodiments, exemplary compounds of Formula I include the compounds described in Table 1 and in the Examples. A compound described herein may be tested for its ability to inhibit glutaminase, e.g., by an assay as described in the Examples. For simplicity, the inhibition activity of these compounds is represented as an IC50 tested in an assay of Example A or Example B in Table 1. […] “N/A” refers to compounds wherein the IC50 is unavailable.
In this example, the enzymatic activity of glutaminase is measured through a coupled endpoint assay. Glutamine and phosphate are supplied to GAC at a concentration equal to Km and AC50, respectively, and GAC concentration is adjusted to give a linear reaction for 60 minutes. The glutamate produced is converted to 2-OG by a kinetic excess of glutamate dehydrogenase. This second step is configured for 2×Km for NAD, since excess NAD is inhibitory. However, a kinetic excess of the third coupling enzyme, diaphorase, recycles NAD from NADH to keep the NAD concentration constant during the timecourse of the assay. Diaphorase, also supplied in kinetic excess, oxidizes NADH produced by GDH back to NAD with the concomitant reduction of rezasurin to the highly fluorescent resorufin. Resorufin in measured after the assay is stopped with SDS by Ex544/Em590. A reduction in the signal indicates inhibition of some component of the coupled enzyme system. Prospective hits are counterscreened against GDH/diaphorase alone to remove hits to the coupling enzyme system in a second assay.
2. Buffers • 2× Buffer (300 mM NaCl, 100 mM HEPES pH 8.5, 0.1% BSA, 0.5 mM EDTA, 100 mM sodium phosphate pH 8.5) • 5× Substrate Mix (1× Buffer final concentration, with 13 mM glutamine, 100 μM resazurin, 50 μg/ml diaphorase) • 1.2× Enzyme Mix (1× Buffer final concentration, with 0.875 μg/ml GAC, 1.56 mM NAD, 6.25 units/ml GDH) • Stop Mix (6% SDS in ddH2O) Reaction Procedure • 1. Add 1 μl compound in 100% DMSO • 2. Add 40 μl of Enzyme Mix and incubate for 60 minute at room temperature • 3. Add 10 μl of Substrate Mix to start reaction • 4. Stop reaction with 25 μl of 6% SDS and read Ex544 Em 590

SMILES	IC50 [nM]
CN(C)C(=O)c1ccc(CC(=O)Nc2nnc([C@H]3CCC[C@H](c4nnc(NC(=O)Cc5ccc(C(=O)N(C)C)cn5)s4)C3)s2)nc1 [Compound 234, 6-[[5-[3-[5-[[2-[5-(dimethylcarbamoyl)pyridin-2-yl]acetyl]amino]-1,3,4-thiadiazol-2-yl]cyclohexyl]-1,3,4-thiadiazol-2-yl]carbamoylmethyl]-N,N-dimethyl-pyridine-3-carboxamide]	100 to 500
CC(=O)Nc1nnc([C@H]2CCC[C@H](c3nnc(NC(=O)Cc4ccccn4)s3)C2)s1 [Compound 93, N-(5-((1S,3S)-3-(5-acetamido-1,3,4-thiadiazol-2-yl)cyclohexyl)-1,3,4-thiadiazol-2-yl)-2-(pyridin-2-yl)acetamide]	< 100
O=C(Cc1cccc2[nH]ccc12)Nc1nnc([C@@H]2CCC[C@H](c3nnc(NC(=O)Cc4cccc5[nH]ccc45)s3)C2)s1 [Compound 25, N,N′-(5,5′-((1S,3R)-cyclohexane-1,3-diyl)bis(1,3,4-thiadiazole-5,2-diyl))bis(2-(1H-indol-4-yl)acetamide)]	500 to 1000
O=C(Cc1cccnc1)Nc1nnc(C[C@H]2C[C@@H]2Cc2nnc(NC(=O)Cc3cccnc3)s2)s1 (racemic) [Compound 5, N,N′-(5,5′-(trans-cyclopropane-1,2-diylbis(methylene))bis(1,3,4-thiadiazole-5,2-diyl))bis(2-(pyridin-3-yl)acetamide)]	100 to 500
O=C(Cc1ccccc1)Nc1nnc([C@@H]2CC[C@@H](c3nnc(NC(=O)Cc4ccccc4)s3)C2)s1 [Compound 19, N,N′-(5,5′-((1R,3R)-cyclopentane-1,3-diyl)bis(1,3,4-thiadiazole-5,2-diyl))bis(2-phenylacetamide)]	100 to 500
O=C(Cc1cccc(Br)n1)Nc1nnc([C@H]2CCC[C@H](c3nnc(NC(=O)Cc4cccc(Br)n4)s3)C2)s1 [Compound 118, N,N′-(5,5′-((1S,3S)-cyclohexane-1,3-diyl)bis(1,3,4-thiadiazole-5,2-diyl))bis(2-(6-bromopyridin-2-yl)acetamide)]	< 100
O=C(Cc1ccccn1)Nc1nnc(C2CCCCC(c3nnc(NC(=O)Cc4ccccn4)s3)C2)s1 (stereo not shown) [Compound 122]	1000 to 2000
Cn1cc(CC(=O)Nc2nnc([C@@H]3CCC[C@H](c4nnc(NC(=O)Cc5cn(C)c6ccccc56)s4)C3)s2)c2ccccc21 [Compound 15, N,N′-(5,5′-((1R,3S)-cyclohexane-1,3-diyl)bis(1,3,4-thiadiazole-5,2-diyl))bis(2-(1-methyl-1H-indol-3-yl)acetamide)]	500 to 1000
CCOc1ccc(CC(=O)Nc2nnc([C@H]3CCC[C@H](c4nnc(NC(=O)Cc5ccc(OCC)cn5)s4)C3)s2)nc1 [Compound 226, N,N′-(5,5′-((1S,3S)-cyclohexane-1,3-diyl)bis(1,3,4-thiadiazole-5,2-diyl))bis(2-(5-ethoxypyridin-2-yl)acetamide)]	< 100
NCc1ccc(CC(=O)Nc2nnc([C@H]3CCC[C@H](c4nnc(NC(=O)Cc5ccc(CN)cn5)s4)C3)s2)nc1 [Compound 243, N,N′-(5,5′-((1S,3S)-cyclohexane-1,3-diyl)bis(1,3,4-thiadiazole-5,2-diyl))bis(2-(5-(aminomethyl)pyridin-2-yl)acetamide)]	100 to 500
CN1CCN(c2cccc(CC(=O)Nc3nnc([C@H]4CCC[C@H](c5nnc(NC(=O)Cc6cccc(N7CCN(C)CC7)c6)s5)C4)s3)c2)CC1 [Compound 259]	100 to 500
CN(C)c1ccc(CC(=O)Nc2nnc([C@H]3CCC[C@H](c4nnc(NC(=O)Cc5ccc(N(C)C)cn5)s4)C3)s2)nc1 [Compound 241, N,N′-(5,5′-((1S,3S)-cyclohexane-1,3-diyl)bis(1,3,4-thiadiazole-5,2-diyl))bis(2-(5-(dimethylamino)pyridin-2-yl)acetamide)]	< 100
CCOc1ccnc(CC(=O)Nc2nnc([C@H]3CCC[C@H](c4nnc(NC(=O)Cc5cc(OCC)ccn5)s4)C3)s2)c1 [Compound 247, N,N′-(5,5′-((1S,3S)-cyclohexane-1,3-diyl)bis(1,3,4-thiadiazole-5,2-diyl))bis(2-(4-ethoxypyridin-2-yl)acetamide)]	< 100
COc1ccccc1CC(=O)Nc1nnc([C@@H]2CCCC[C@H](c3nnc(NC(=O)Cc4ccccc4OC)s3)C2)s1 [Compound 125]	1000 to 2000
CC(=O)Nc1nnc([C@H]2CCC[C@H](c3nnc(NC(C)=O)s3)C2)s1 [Compound 12, N,N′-(5,5′-((1S,3S)-cyclohexane-1,3-diyl)bis(1,3,4-thiadiazole-5,2-diyl))diacetamide]	500 to 1000
O=C(Cc1ccncn1)Nc1nnc([C@H]2CCC[C@H](c3nnc(NC(=O)Cc4ccncn4)s3)C2)s1 [Compound 230, N,N′-(5,5′-((1S,3S)-cyclohexane-1,3-diyl)bis(1,3,4-thiadiazole-5,2-diyl))bis(2-(pyrimidin-4-yl)acetamide)]	1000 to 2000
O=C(Cc1cccc(Br)c1)Nc1nnc([C@H]2CCC[C@H](c3nnc(NC(=O)Cc4cccc(Br)c4)s3)C2)s1 [Compound 220, N,N′-(5,5′-((1S,3S)-cyclohexane-1,3-diyl)bis(1,3,4-thiadiazole-5,2-diyl))bis(2-(3-bromophenyl)acetamide)]	100 to 500
O=C(Cc1cccc(N2CC(F)(F)C2)n1)Nc1nnc([C@H]2CC[C@H](c3nnc(NC(=O)Cc4cccc(N5CC(F)(F)C5)n4)s3)C2)s1 [Compound 288, N,N′-(5,5′-((1S,3S)-cyclopentane-1,3-diyl)bis(1,3,4-thiadiazole-5,2-diyl))bis(2-(6-(3,3-difluoroazetidin-1-yl)pyridin-2-yl)acetamide)]	< 100
COc1ccc(CC(=O)Nc2nnc(C3CCCCC(c4nnc(NC(=O)Cc5ccc(OC)cc5)s4)C3)s2)cc1 (stereo not shown) [Compound 121]	1000 to 2000
COc1cccnc1CC(=O)Nc1nnc([C@H]2CCC[C@H](c3nnc(NC(=O)Cc4ncccc4OC)s3)C2)s1 (racemic) [Compound 116]	< 100
CC(=O)Nc1nnc([C@@H]2CCC[C@@H](c3nnc(NC(=O)Cc4ccccn4)s3)C2)s1 [Compound 26]	100 to 500
O=C(Cc1cccc2c1OCO2)Nc1nnc([C@H]2CCC[C@H](c3nnc(NC(=O)Cc4cccc5c4OCO5)s3)C2)s1 [Compound 218, N,N′-(5,5′-((1S,3S)-cyclohexane-1,3-diyl)bis(1,3,4-thiadiazole-5,2-diyl))bis(2-(benzo[d][1,3]dioxol-4-yl)acetamide)]	< 100
O=C(Cc1cccs1)Nc1nnc(C[C@H]2C[C@@H]2Cc2nnc(NC(=O)Cc3cccs3)s2)s1 (racemic) [Compound 6, N,N′-(5,5′-(trans-cyclopropane-1,2-diylbis(methylene))bis(1,3,4-thiadiazole-5,2-diyl))bis(2-(thiophen-2-yl)acetamide)]	100 to 500
O=C(Cc1cccc(N2CC(F)(F)C2)n1)Nc1nnc([C@H]2CCC[C@H](c3nnc(NC(=O)Cc4cccc(N5CC(F)(F)C5)n4)s3)C2)s1 [Compound 268, N,N′-(5,5′-((1S,3S)-cyclohexane-1,3-diyl)bis(1,3,4-thiadiazole-5,2-diyl))bis(2-(6-(3,3-difluoroazetidin-1-yl)pyridin-2-yl)acetamide)]	< 100
Nc1ccc(CC(=O)Nc2nnc([C@H]3CCC[C@H](c4nnc(NC(=O)Cc5ccc(N)cc5)s4)C3)s2)cc1 [Compound 239, N,N′-(5,5′-((1S,3S)-cyclohexane-1,3-diyl)bis(1,3,4-thiadiazole-5,2-diyl))bis(2-(4-aminophenyl)acetamide)]	< 100

Source: patent US9029531B2 (Agios Pharmaceuticals, Inc., priority 2012, dated 2015)
